ChEMBL document CHEMBL3861976, “Phthalide Derivatives with Anticoagulation Activities from Angelica sinensis” (J Nat Prod, 2016)
The source made the active and inactive calls. The rule behind the calls is not given here.

What was measured:
Format in all cases: functional, cell-free
Oryctolagus cuniculus [1] = organism: Oryctolagus cuniculus; test: Anticoagulant activity in New Zealand White rabbit plasma assessed as prolongation of thrombin time at 1 mM incubated for 3 mins followed by thrombin addition
Oryctolagus cuniculus [2] = organism: Oryctolagus cuniculus; test: Anticoagulant activity in New Zealand White rabbit plasma assessed as decrease in fibrinogen level at 1 mM after 3 mins
Oryctolagus cuniculus [3] = organism: Oryctolagus cuniculus; test: Anticoagulant activity in New Zealand White rabbit plasma assessed as prolongation of activated partial thromboplastin time at 1 mM after 1 min

SMILES	Activity (Oryctolagus cuniculus [1])	Activity (Oryctolagus cuniculus [2])	Activity (Oryctolagus cuniculus [3])
CCCCC(=O)[C@]12CC[C@H](C=C1C(=O)OC)[C@@H](CCC)[C@@]21OC(=O)C2=C[C@H]3CC[C@]21OO3	Active	Active	Active
CCC/C=C1\OC(=O)C2=C1CC[C@@H]1[C@@H]3CCC4=C(C(=O)OC45[C@H](CCC)[C@@H](CCC)[C@@]54OC(=O)C5=C4CCC=C5)[C@@H]3[C@H]21 (some centres undefined)	–	Active	–
